Molecular target: human IDO1 (Homo sapiens, UniProt P14902)
Test: Assessment of human IDO-1 inhibitory activity in HEK cells (human IDO1/HEK293 cells, kynurenine read-out with Ehrlich reagent, absorbance 490 nm)
Format: cell-based
Parameters: expressed in transfected cells
Details: HEK Human IDO-1 cellular assay
Method in brief: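 HEK293 cells stably expressing human IDO1 were seeded at 10,000 per well in phenol red-free RPMI with 10% FBS, treated with compound for 20 h at 37 °C. Kynurenine was measured after TCA (0.2% final) and 30 min at 50 °C, using Ehrlich reagent, A490. IC50 normalised to DMSO (0%) and 500 nM reference standard (100%).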

Chain of human IDO1 (P14902 whole entry): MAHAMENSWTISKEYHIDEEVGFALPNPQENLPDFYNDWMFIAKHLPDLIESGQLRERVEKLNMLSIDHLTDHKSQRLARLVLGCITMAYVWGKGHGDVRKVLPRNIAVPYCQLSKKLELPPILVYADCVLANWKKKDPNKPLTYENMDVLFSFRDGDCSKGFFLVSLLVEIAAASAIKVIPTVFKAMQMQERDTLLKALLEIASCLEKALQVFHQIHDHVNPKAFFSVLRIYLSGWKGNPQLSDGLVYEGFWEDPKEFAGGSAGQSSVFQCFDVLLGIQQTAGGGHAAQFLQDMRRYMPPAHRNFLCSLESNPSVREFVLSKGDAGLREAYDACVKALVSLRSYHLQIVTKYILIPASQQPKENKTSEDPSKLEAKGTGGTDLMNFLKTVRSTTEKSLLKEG

Row | SMILES | IC50 [nM]
1 | CCC(CC(=O)O)c1ccc(N(CC(C)C)C2CCCCC2)c(Nc2ccc(Cl)c(OCC3CC3)c2)c1 (single isomer, unassigned) [Example 645, 3-(3-((4-chloro-3-(cyclopropylmethoxy)phenyl)amino)-4-(cyclohexyl (isobutyl)amino)phenyl) pentanoic acid] | < 50
2 | CC[C@@H](CC(=O)O)c1ccc(N(CC)C2CCOCC2)c(NC(=O)Nc2ccc(Cl)cc2)c1 (single isomer, unassigned) [Example 494] | > 50
3 | COCC(CC(=O)O)c1cc(F)c(N(CC(C)C)C2CCCCC2)c(NC(=O)Nc2ccc(OC)cc2F)c1 (single isomer, unassigned) [Example 1152, 3-(4-(Cyclohexyl(isobutyl)amino)-3-fluoro-5-(3-(2-fluoro-4-methoxyphenyl)ureido)phenyl)-4-methoxybutanoic acid] | < 5
4 | CCOc1ccc(NC(=O)Nc2cc(C(COC)CC(=O)O)ccc2N(CC(C)C)C2CCCCC2)c(F)c1 (single isomer, unassigned) [Example 1236, 3-(4-(Cyclohexyl(isobutyl)amino)-3-(3-(4-ethoxy-2-fluorophenyl)ureido)phenyl)-4-methoxybutanoic acid] | < 5
5 | CCC(CC(=O)O)c1cc(F)c(N(CC(C)C)CC(C)C)c(Nc2cnc(OC)nc2)c1 (single isomer, unassigned) [Example 104, 3-(4-(diisobutylamino)-3-fluoro-5-((2-methoxypyrimidin-5-yl)amino)phenyl) pentanoic acid] | < 5
6 | CCC(CC(=O)O)c1ccc(N(CC2CC2)C2CCOCC2)c(NC(=O)Nc2ccc(Cl)cc2F)c1 (single isomer, unassigned) [Example 696, 3-(3-(3-(4-Chloro-2-fluorophenyl)ureido)-4-((cyclopropylmethyl)(tetrahydro-2H-pyran-4-yl)amino)phenyl)pentanoic acid] | < 5
7 | CCN(c1ccc([C@@H](COC)CC(=O)O)cc1Nc1cnc(OC)nc1)C1CCOCC1 (single isomer, unassigned) [Example 350] | < 50
8 | CCc1ccc(Nc2cc([C@H](CC)CC(=O)O)ccc2N(CC)C2CCOCC2)cc1 (single isomer, unassigned) [Example 517] | < 5
9 | CCC(CC(=O)O)c1ccc(N2CCC[C@H]2C(C)(C)F)c(Nc2ccc3c(c2)OC(F)(F)O3)c1 (single isomer, unassigned) [Example 790] | < 50
10 | CC[C@H](CC(=O)O)c1ccc(N2CCC[C@@H]2C(C)(C)O)c(Nc2cnc(OCC3CC3)nc2)c1 (single isomer, unassigned) [Example 842] | > 50
11 | CCC(CC(=O)O)c1ccc(N2C[C@@H]3C[C@H]2CN3C(=O)OC(C)(C)C)c(Nc2ccc(C)cc2)c1 (single isomer, unassigned) [Example 445] | < 5
12 | COCC(CC(=O)O)c1cc(F)c(N(CC(C)C)CC(C)C)c(NC(=O)Nc2ccc(C)cc2)c1 (single isomer, unassigned) [Example 1194, 3-(4-(Diisobutylamino)-3-fluoro-5-(3-(p-tolyl)ureido)phenyl)-4-methoxybutanoic acid] | < 50
13 | CC[C@H](CC(=O)O)c1ccc(N(CC)C2CCOCC2)c(NC(=O)Nc2ccc(OC)cc2)c1 (single isomer, unassigned) [Example 529] | < 50
14 | CC(C)(CC(=O)O)c1ccc(N2CCC[C@H]2C(C)(C)O)c(Nc2ccc(C#N)cc2)c1 [Example 809, (S)-3-(3-((4-cyanophenyl)amino)-4-(2-(2-hydroxypropan-2-yl)pyrrolidin-1-yl)phenyl)-3-methylbutanoic acid] | < 50
15 | CC[C@@H](CC(=O)O)c1ccc(N(CC)C2CCOCC2)c(Nc2ccc(S(=O)(=O)CC)cc2)c1 (single isomer, unassigned) [Example 485] | < 50
16 | CCN(c1ccc([C@H](COC)CC(=O)O)cc1NC(=O)Nc1cnc(C)nc1)C1CCOCC1 (single isomer, unassigned) [Example 438] | > 50
17 | CC[C@@H](CC(=O)O)c1ccc(N(CC(C)C)C2CCS(=O)(=O)CC2)c(NC(=O)Nc2ccc(C)cc2)c1 (single isomer, unassigned) [Example 210] | > 50
18 | CCN(c1ccc([C@@H](COC)CC(=O)O)cc1NC(=O)Nc1cc(C)no1)C1CCOCC1 (single isomer, unassigned) [Example 429] | > 50
19 | CCOc1ccc(CC(=O)Nc2cc(C(COC)CC(=O)O)cc(F)c2N(CC(C)C)C2CCCCC2)cc1 (single isomer, unassigned) [Example 1168, 3-(4-(cyclohexyl(isobutyl)amino)-3-(2-(4-ethoxyphenyl)acetamido)-5-fluorophenyl)-4-methoxybutanoic acid] | < 50
20 | CCC(CC(=O)O)c1ccc(N2CCOC[C@H]2C(C)C)c(Nc2cnc(OCC3CC3)nc2)c1 (single isomer, unassigned) [Example 905] | > 50
21 | CCC(CC(=O)O)c1ccc(N(CC(C)C)CC(C)C)c(NC(=O)Cc2ccc(C)cc2)c1 (single isomer, unassigned) [Example 1103 E1, 3-(4-(Diisobutylamino)-3-(2-(p-tolyl)acetamido)phenyl)pentanoic acid] | < 5

Row | SMILES | IC50 [nM]
22 | CCOc1ccc(CC(=O)Nc2cc(C(COC)CC(=O)O)ccc2N(CC(C)C)C2CCCCC2)cc1 (single isomer, unassigned) [Example 1241, 3-(4-(Cyclohexyl(isobutyl)amino)-3-(2-(4-ethoxyphenyl)acetamido)phenyl)-4-methoxybutanoic acid] | < 50
23 | CC[C@H](CC(=O)O)c1ccc(N(CC)C2CCOCC2)c(NC(=O)Nc2ccc(F)cc2)c1 (single isomer, unassigned) [Example 527] | < 50
24 | CCN(c1ccc([C@H](COC)CC(=O)O)cc1NC(=O)Nc1ccc(OC(F)F)cc1)C1CCOCC1 (single isomer, unassigned) [Example 436] | > 50
25 | CCN(c1ccc(C(C)CC(=O)O)cc1Nc1ccc2nc(C)sc2c1)C1CCOCC1 (single isomer, unassigned) [Example 617, 3-(4-(ethyl(tetrahydro-2H-pyran-4-yl)amino)-3-((2-methylbenzo[d]thiazol-6-yl)amino)phenyl)butanoic acid] | < 50
26 | CCOc1ccc(CC(=O)Nc2cc(C(CC(=O)O)C3CC3)ccc2N(CC(C)C)C2CCCCC2)cc1 (single isomer, unassigned) [Example 1248, 3-(4-(Cyclohexyl(isobutyl)amino)-3-(2-(4-ethoxyphenyl)acetamido)phenyl)-3-cyclopropylpropanoic acid] | < 5
27 | CCC(CC(=O)O)c1ccc(N2CCC[C@@H]2C(C)(C)O)c(Nc2ccc(C#N)cc2)c1 (single isomer, unassigned) [Example 782] | < 50
28 | CCN(c1ccc(C(C)(C)CC(=O)O)cc1Nc1ccc2c(c1)OC(F)(F)O2)C1CCOCC1 [Example 161, 3-(3-((2,2-difluorobenzo[d][1,3]dioxol-5-yl)amino)-4-(ethyl (tetrahydro-2H-pyran-4-yl)amino)phenyl)-3-methylbutanoic acid] | < 5
29 | CC[C@@H](CC(=O)O)c1ccc(N(CC(C)C)C2CCS(=O)(=O)CC2)c(Nc2ccc3sc(C)nc3c2)c1 (single isomer, unassigned) [Example 219] | < 5
30 | CCOc1ccc(NC(=O)Nc2cc([C@H](CC)CC(=O)O)ccc2N(CC)C2CCOCC2)cc1 (single isomer, unassigned) [Example 528] | < 50
31 | CCOc1ncc(Nc2cc([C@@H](CC)CC(=O)O)ccc2N(CC(C)(C)O)C2CCCCC2)cn1 (single isomer, unassigned) [Example 229] | < 50
32 | CCC(CC(=O)O)c1cc(NC(=O)Nc2ccc(C)cc2F)c(N(CC(C)C)C2CCCCC2)cc1F (single isomer, unassigned) [Example 1120, 3-(4-(Cyclohexyl(isobutyl)amino)-2-fluoro-5-(3-(2-fluoro-4-methylphenyl)ureido)phenyl)pentanoic acid] | < 5
33 | CCOc1ncc(Nc2cc([C@@H](CC)CC(=O)O)ccc2N(CC)C2CCCCC2)cn1 (single isomer, unassigned) [Example 281] | < 50
34 | CCOc1ccc(Nc2cc([C@@H](CC)CC(=O)O)ccc2N2CCOC[C@@H]2C(C)C)cc1 (single isomer, unassigned) [Example 82] | < 50
35 | CCC(CC(=O)O)c1ccc(N(CC(C)C)C2CCCCC2)c(NC(=O)Cc2cc(F)ccc2F)c1 (racemic) [Example 1087] | < 5
36 | CC[C@@H](CC(=O)O)c1ccc(N(CC)C2CCOCC2)c(Nc2ccc(C#N)cc2)c1 (single isomer, unassigned) [Example 458] | < 5
37 | CC(C)CN(CC(C)C)c1ccc(C(CC(=O)O)CN(C)C)cc1NC(=O)Nc1ccc(Cl)cc1F (racemic) [Example 1000, (+/−)-3-(3-(3-(4-Chloro-2-fluorophenyl)ureido)-4-(diisobutylamino)phenyl)-4-(dimethylamino)butanoic acid] | > 50
38 | CC(C)CN(c1ccc(C(CC(=O)O)C2CC2)cc1NC(=O)Nc1cncnc1)C1CCOCC1 (racemic) [Example 1206, (+/−)-3-Cyclopropyl-3-(4-(isobutyl(tetrahydro-2H-pyran-4-yl)amino)-3-(3-(pyrimidin-5-yl)ureido)phenyl)propanoic acid] | > 50
39 | CCC(CC(=O)O)c1ccc(N2CCC[C@H]2C(C)(C)O)c(Nc2ccc(OCC3CC3)cc2)c1 (single isomer, unassigned) [Example 818] | > 50
40 | CCC(CC(=O)O)c1cc(F)c(N(CC(C)C)CC(C)C)c(Nc2ccnc(N3CCOCC3)n2)c1 (single isomer, unassigned) [Example 105, 3-(4-(diisobutylamino)-3-fluoro-5-((2-morpholinopyrimidin-4-yl)amino)phenyl) pentanoic acid] | > 50
41 | CCOc1ccc(NC(=O)Nc2cc(C(C)CC(=O)O)ccc2N(CC(C)C)C2CCOCC2)cc1 (single isomer, unassigned) [Example 963, 3-(3-(3-(4-ethoxyphenyl)ureido)-4-(isobutyl(tetrahydro-2H-pyran-4-yl)amino)phenyl)butanoic acid] | > 50
